Ends that are not written are not given here.
Columns and labels:
[1] = system: human gel-filtered platelets; experiment: Thrombin-induced platelet aggregation (aggregometer); format: cell-based; details: for effect on human platelet aggregation after thrombin stimulation: 10 nM each, 0.5 U thrombin; for effect on human platelet aggregation after thrombin stimulation / effect on thrombin-induced human platelet aggregation vs PBS control: 15 min 37 °C; for effect on thrombin-induced human platelet aggregation vs PBS control: 100 pM-1 uM (10^-10 to 10^-6 M)
Method: Platelets were then stimulated with thrombin and aggregation was measured using an aggregometer.

[2] = system: MEG-01 cells; experiment: Intracellular cAMP EIA assay; format: cell-based, human
Method: An EIA kit (Cayman Chemicals) was employed to measure intracellular cAMP levels. […] 3-isobutyl-1-methylxanthine (IBMX) was added to each well at a concentration of 0.5 μM and allowed to incubate for 10 min at 37° C. to inhibit phosphodiesterase activity. As a positive control for cAMP generation in MEG-01 cells, PGI2 was added at a concentration of 0.02 ng/ml to control wells and incubated for 10 min at 37° C. PBS was used as a negative control. After incubation, cells were lysed by adding EDTA to a concentration of 10 mM. Lysed cells were transferred to 1.5 ml eppendorf tubes and boiled for 5 min at 95° C. Samples were spun down at 10000 xg for 15 min at 4° C. Supernatant was removed and frozen at −80° C. The cAMP EIA kit assay was then carried out according to manufacturer's instructions.
Given the limited specificity of Abs raised against GPCRs, RT-PCR was performed on RNA from MEG-01 cells with primers designed to yield full-length human GLP-1R cDNA.

[3] = system: platelets; details: associated with inhibitory effect on intracellular free calcium and tyrosine phosphorylation; cited from earlier work

## GLP-1(9-36) (EGTFTSDVSSYLEGQAAKEFIAWLVKGR-NH2)
[1]
  effect on human platelet aggregation after thrombin stimulation: delayed human platelet aggregation
[1]; listed as GLP-1(9-36)^NH2
  effect on human platelet aggregation after thrombin stimulation: inhibited human platelet aggregation, but to a lesser extent than GLP-1(7-36)^NH2

## CCCCC[C@H](O)/C=C/[C@@H]1[C@H]2C/C(=C/CCCC(=O)O)O[C@H]2C[C@H]1O [PGI2, prostacyclin PGI2, reference compound]
[2]; PGI2 0.02 ng/ml, 10 min 37 °C
  cAMP response (positive control): 16 fold

## N[C@@H](CC(=O)N1CCn2c(nnc2C(F)(F)F)C1)Cc1cc(F)c(F)cc1F [sitagliptin]
[3]
  anti-platelet activity: exhibited anti-platelet activity

## GLP-1(7-36)
[1]; thrombin 0.125 U
  effect on thrombin-induced human platelet aggregation vs PBS control: delayed and reduced
[1]; thrombin 0.125 U, listed as GLP-1
  effect on thrombin-induced human platelet aggregation vs PBS control: delayed and reduced platelet aggregation
[1]
  effect on human platelet aggregation after thrombin stimulation: delayed human platelet aggregation
[1]; between 0.1 nM and 100 nM, thrombin 0.125 U, not significant, n=3
  total area under curve of aggregation: some inhibition of platelet activity
[2]; 15 min incubation, 100 pM to 100 nM, n=3
  intracellular cAMP, qualitative: dose-dependent increase in cAMP

From patent US20150290294A1, “METHODS FOR INHIBITING PLATELET AGGREGATION USING GLP-1 RECEPTOR AGONISTS” (priority 2012, published 2015)
